Measurements reported in patent publication US9221798B2, “4-substituted-(3-substituted-1H-pyrazole-5-amino)-pyrimidine derivatives having activity of inhibiting protein kinase and use thereof” (Zhejian Hisun Pharmaceutical Co., Ltd., priority 2011, dated 2015).

Experiments:
Aurora A kinase = biological target: T1, Aurora A kinase (Homo sapiens, UniProt O14965); assay: Assay for the inhibiting activity of kinase (Glo Plus / ADP Glo / Caliper), Aurora A; type: biochemical; settings: kinase inhibition, incubated at 30° C. for 1 hour
T1 sequence (O14965 1-403): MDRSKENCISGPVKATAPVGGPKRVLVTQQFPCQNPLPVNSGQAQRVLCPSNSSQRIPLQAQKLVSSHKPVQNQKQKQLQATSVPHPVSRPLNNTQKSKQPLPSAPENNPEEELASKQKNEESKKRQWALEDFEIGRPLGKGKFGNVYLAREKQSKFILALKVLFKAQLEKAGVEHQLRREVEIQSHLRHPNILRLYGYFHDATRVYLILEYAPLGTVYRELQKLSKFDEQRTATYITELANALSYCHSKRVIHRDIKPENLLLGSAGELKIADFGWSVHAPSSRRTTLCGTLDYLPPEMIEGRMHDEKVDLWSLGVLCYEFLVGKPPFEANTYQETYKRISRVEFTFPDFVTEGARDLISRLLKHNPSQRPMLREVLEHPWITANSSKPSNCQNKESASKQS
Procedure: (§1) Experimental Reagents: a buffer solution of 25 mM HEPES, 10 mM MgCl2, 0.01% Triton X-100, 100 μg/mL BSA, 2.5 mM DTT, pH=7.4; ATP was available from U.S. Sigma (cat. A7699); Glo Plus Kinase Reagent was available from U.S. Promega (cat. V3773); ADP Glo Reagent was available from U.S. Promega (cat. V9102).
(§2) Procedures of the detection experiment for Glo Plus and ADP Glo kinases: the kinase(s), substrate, ATP and the compound(s) to be tested were mixed on a 384-well culture plate, with a total volume of 10 μL of the mixture, […], and then the culture plate was incubated at 30° C. for 1 hour. Test for Glo Plus kinase activity: add 10 μL of Glo Plus kinase per well to the mixture and then incubate at 27° C. for 20 minutes. Test for ADP Glo kinase activity: add 10 μL of ADP Glo per well to the culture plate, and then incubate at 27° C. for 40 minutes. Then a kinase detection reagent (10 μL per well) was added to the culture plate which was incubated at 27° C. for 30 minutes. Read the values from the plate reader to determine inhibition data.
(§3) Biologic testing procedures of Caliper kinase: the kinase, substrate, ATP and the compound to be tested were mixed in a 96-well culture plate, with a total volume of 50 μL of the mixture, and then the culture plate was incubated at 30° C. for 1 hour. Add 20 μL of 35 mM EDTA to the culture plate. A solution of 26 μL of the reaction mixture was transferred to a 384-well culture plate, and read the values on a plate reader to determine inhibition data.

A549 = assay: Test for activity of inhibiting tumor cells (CellTiter-Glo cell viability), A549; type: cell-based; settings: Homo sapiens, half growth inhibition concentration, 72 hours incubation
Source text: (§4) Reagents and consumables: 1. Tumor cells were available from HD Biosciences (Shanghai) Co., Ltd. and detected mycoplasma-free; 2. RPMI 1640 Culture Medium, available from U.S. Invitrogen, Code No.: 31800-022; 3. F12K Culture Medium, available from U.S. Invitrogen, Code No.: 21127-022; 4. DMEM Culture Medium, available from U.S. Invitrogen, Code No.: 12100-046; 5. Fetal bovine serum, available from U.S. Hyclone, Code No.: CH30160.03; 6. Penicillin-Streptomycin liquid, available from U.S. Invitrogen, Code No.: 15140-122; 7. Gemcitabine, available from U.K. Tocris, Code No.: 3259; 8. DMSO, available from U.S. Sigma, Code No.: D4540; 9. 96-well cell culture plate, available from U.S. Corning, Code No.: 3610; 10. CellTiter-Glo Luminescent Cell Viability Assay, available from U.S. Promega, Code No.: G7571; 11. Plate Reader, available from U.S. Perkin Elmer, EnVision Multilabel Plate Reader.
The cell culture mediums: 1. RPMI 1640 whole cell culture medium: a RPMI 1640 culture medium containing 10% fetal bovine serum and 100 U penicillin and 100 μg/mL streptomycin. 2. […]
(§5) Procedures: 1. […] The cell plate was placed into the plate reader for analysis. Set to read chemiluminescence and record the data.
(§6) Data Process: The data read in each well were required to be converted into cell viability. The cell viability could be calculated by using formulae. […]

HepG2 = assay: Test for activity of inhibiting tumor cells (CellTiter-Glo cell viability), HepG2; type: cell-based; settings: Homo sapiens, half growth inhibition concentration, 72 hours incubation
Source text: as §4
(§7) The cell culture mediums: 1. RPMI 1640 whole cell culture medium: a RPMI 1640 culture medium containing 10% fetal bovine serum and 100 U penicillin and 100 μg/mL streptomycin. 2. F12K whole cell culture medium: a F12K culture medium containing 10% fetal bovine serum and 100 U penicillin and 100 μg/mL streptomycin. 3. DMEM whole cell culture medium: a DMEM culture medium containing 10% fetal bovine serum and 100 U penicillin and 100 μg/mL streptomycin.
Preparation of the compounds: 1. A test compound was formulated into a mother liquor in a concentration of 30 mM, and the mother liquor was divided into aliquots and stored in a refrigerator at −80° C. 2. The mother liquors of the test compounds in a concentration of 30 mM were diluted with DMSO to a series of solutions in gradient concentrations, wherein these gradient concentrations included 25 mM, 5 mM, 1 mM, 200 μM, 40 μM, 8 μM, 1.6 μM, 0.32 μM. […]
as §5, §6

K562 = assay: Test for activity of inhibiting tumor cells (CellTiter-Glo cell viability), K562; type: cell-based; settings: Homo sapiens, half growth inhibition concentration, 72 hours incubation
Source text: as §4, §7
Preparation of the compounds: 1. A test compound was formulated into a mother liquor in a concentration of 30 mM, and the mother liquor was divided into aliquots and stored in a refrigerator at −80° C. 2. The mother liquors of the test compounds in a concentration of 30 mM were diluted with DMSO to a series of solutions in gradient concentrations, wherein these gradient concentrations included 25 mM, 5 mM, 1 mM, 200 μM, 40 μM, 8 μM, 1.6 μM, 0.32 μM. Then the formulated solutions in gradient concentrations were diluted five times with the whole cell culture mediums, and then the gradient concentrations of the test compounds included 5 mM, 1 mM, 200 μM, 40 μM, 8 μM, 1.6 μM, 0.32 μM, 0.064 μM dissolved in 20% DMSO. 3. Only before the experiments began, the prepared solutions of the test compounds in series of gradient concentrations were diluted one hundred times with the whole cell culture mediums under sterile conditions, wherein these gradient concentrations of the test compounds included 50 μM, 10 μM, 2 μM, 0.4 μM, 0.08 μM, 16 nM, 3.2 nM, 0.64 nM; which were 2× the compound solutions and they could be used to treat the cells. 4. […]
as §5, §6

Raf-1 kinase = Raf-1 kinase (Homo sapiens, UniProt P04049); assay: Assay for the inhibiting activity of kinase (Glo Plus / ADP Glo / Caliper), Raf-1; type: biochemical; settings: kinase inhibition, incubated at 30° C. for 1 hour
Procedure: as §1, §2, §3

Raf-1 kinase, sequence (P04049 whole entry): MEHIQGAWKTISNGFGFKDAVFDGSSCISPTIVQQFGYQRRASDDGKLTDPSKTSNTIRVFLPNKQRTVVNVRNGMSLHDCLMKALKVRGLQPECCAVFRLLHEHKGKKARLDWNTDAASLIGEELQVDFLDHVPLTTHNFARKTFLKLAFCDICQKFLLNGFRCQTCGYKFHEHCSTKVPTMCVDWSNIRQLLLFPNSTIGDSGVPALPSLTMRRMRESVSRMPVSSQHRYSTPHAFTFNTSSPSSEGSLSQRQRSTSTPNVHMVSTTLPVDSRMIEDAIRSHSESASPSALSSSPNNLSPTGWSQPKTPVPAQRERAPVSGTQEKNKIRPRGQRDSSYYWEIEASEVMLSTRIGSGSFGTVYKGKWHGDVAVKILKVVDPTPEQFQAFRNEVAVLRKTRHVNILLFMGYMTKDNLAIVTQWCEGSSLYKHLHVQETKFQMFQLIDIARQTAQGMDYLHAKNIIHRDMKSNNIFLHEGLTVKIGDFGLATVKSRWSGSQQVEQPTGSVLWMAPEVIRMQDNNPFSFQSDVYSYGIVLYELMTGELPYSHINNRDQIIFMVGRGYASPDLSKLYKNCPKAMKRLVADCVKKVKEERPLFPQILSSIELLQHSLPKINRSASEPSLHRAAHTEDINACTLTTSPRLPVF

| IC50 (Aurora A kinase) | EC50 (A549) | EC50 (HepG2) | EC50 (K562) | IC50 (Raf-1 kinase) | SMILES |
| --- | --- | --- | --- | --- | --- |
| 0.34 µM | 13.3 µM | 17.7 µM | 4.8 µM | 0.24 µM | COc1cnc(Nc2cc(NC(=O)Nc3ccc(Cl)c(C(F)(F)F)c3)ccc2C)nc1Nc1cc(C)[nH]n1 [Compound 9, 1-(4-chloro-3-trifluoromethyl-phenyl)-3-{3-[5-methoxy-4-(5-methyl-1H-pyrazol-3-yl-amino)-pyrimidin-2-yl-amino]-4-methyl-phenyl}-urea] |
| 2.1 µM |  |  | 11.9 µM | 0.41 µM | Cc1cc(Nc2nc(Nc3cc(NC(=O)Nc4ccc(Cl)c(C(F)(F)F)c4)ccc3C)ncc2N)n[nH]1 [Compound 8, 1-(4-chloro-3-trifluoromethyl-phenyl)-3-{4-methyl-3-[5-methyl-4-(5-methyl-1H-pyrazol-3-yl-amino)-5-amino-pyrimidin-2-yl-amino]-phenyl}-urea] |
| 0.78 µM |  | 3.82 µM | 4 µM | 0.38 µM | Cc1cc(Nc2nc(Nc3cc(NC(=O)Nc4ccc(Cl)c(C(F)(F)F)c4)ccc3C)ncc2F)n[nH]1 [Compound 2, 1-(4-chloro-3-trifluoromethyl-phenyl)-3-{3-[5-fluoro-4-(5-methyl-1H-pyrazol-3-yl-amino)-pyrimidin-2-yl-amino]-4-methyl-phenyl}-urea] |
|  |  |  |  | 1.53 µM | Cc1cc(Nc2nc(Nc3cc(NC(=O)Nc4ccc(Cl)c(C(F)(F)F)c4)ccc3C)ncc2C(F)(F)F)n[nH]1 [Compound 3, 1-(4-chloro-3-trifluoromethyl-phenyl)-3-{4-methyl-3-[4-(5-methyl-1H-pyrazol-3-yl-amino)-5-trifluoromethyl-pyrimidin-2-yl-amino]-phenyl}-urea] |
| 2.68 µM |  |  |  |  | Cc1cc(Nc2ccnc(Nc3cc(NC(=O)Nc4ccc(Cl)c(C(F)(F)F)c4)ccc3C)n2)n[nH]1 [Compound 4, 1-(4-chloro-3-trifluoromethyl-phenyl)-3-{4-methyl-3-[4-(5-methyl-1H-pyrazol-3-yl-amino)-pyrimidin-2-yl-amino]-phenyl}-urea] |
| 0.14 µM |  | 6.98 µM | 4.87 µM | 0.25 µM | Cc1cc(Nc2nc(Nc3cc(NC(=O)Nc4ccc(Cl)c(C(F)(F)F)c4)ccc3C)ncc2C)n[nH]1 [Compound 6, 1-(4-chloro-3-trifluoromethyl-phenyl)-3-{4-methyl-3-[5-methyl-4-(5-methyl-1H-pyrazol-3-yl-amino)-pyrimidin-2-yl-amino]-phenyl}-urea] |
|  |  |  |  | 2.14 µM | Cc1cc(Nc2nc(Nc3cc(NC(=O)Nc4ccc(Cl)c(C(F)(F)F)c4)ccc3C)ncc2O)n[nH]1 [Compound 11, 1-(4-chloro-3-trifluoromethyl-phenyl)-3-{3-[5-hydroxy-4-(5-methyl-1H-pyrazol-3-yl-amino)-pyrimidin-2-yl-amino]-4-methyl-phenyl}-urea] |
